Values quoted from earlier work, collected in patent US9827197B2, “Diclofenac formulations and methods of use” (APR Applied Pharma Research s.a., priority 2005, dated 2017).

Assays:
[1] = water at 25 degrees Celsius
[2] = commercially available sugar coated tablets

solubility in water [1] | terminal half life [2] | Compound
22 g/100 ml |  | OC[C@@H](O)[C@@H](O)[C@H](O)[C@H](O)CO [mannitol]
 | about 1.9 hours | O=C(O)Cc1ccccc1Nc1c(Cl)cccc1Cl [Diclofenac potassium]
